Experimental data taken from patent US20060148694A1, “Inhibition of stress-induced ligand-dependent egfr activation” (Max-Planck-Gesellschaft zur Foerderung der Wessenschaften. …, priority 2003, published 2006).

Experiments:
p38 [1] = experiment: p38 activation immunoblot in TCC-Sup cells after doxorubicin; format: cell-based, human; details: doxorubicin treatment, FIG. 7A
Description: FIG. 7. Doxorubicin-induced cell death of TCC-Sup carcinoma cells. (A) p38 activation in response to doxorubicin treatment. TCC-Sup cells were seeded and treated with doxorubicin for the indicated time points. After cell lysis, p38 activation was assessed by immunoblotting cell extracts with anti-phospho-p38 antibody and reprobing of the same filters with anti-p38 antibody. (B) Blockade of HB-EGF function enhances cell-death in response to doxorubicin. Cells were treated for 72 h with 10 μM doxorubicin and 10 μg/mL Crm197 every 24 h as indicated. After collection of cells in assay buffer, nuclei were stained with PI and analyzed by flow cytometric analysis.
Cells were lysed and proteins immunoprecipitated as described before (Daub et al., 1997). Prior to lysis, cells grown to 80% confluence were treated with inhibitors and agonists as indicated in the figure legends and then lysed for 10 min on ice in buffer containing 50 mM HEPES, pH 7.5, 150 mM NaCl, 1% Triton X-100, 1 mM EDTA, 10% glycerol, 10 mM sodium pyrophosphate, 2 mM sodium orthovanadate, 10 mM sodium fluoride, 1 mM phenylmethylsulfonyl fluoride, and 10 μg/mL aprotinin. Lysates were precleared by centrifugation at 13,000 rpm for 10 min at 4° C. […] Phosphotyrosine was detected with the 4G10 monoclonal antibody (UBI, Lake Placid, N.Y.). […]

EGFR [2] = experiment: EGFR tyrosine phosphorylation (IP/immunoblot) in Cos-7 cells; format: cell-based; details: for stress-induced EGFR activation: pre-treated 30 min with SB202190 10 μM or PD98059 50 μM, 0.3 M sorbitol or 200 μM hydrogen peroxide 10 min; for EGFR activation after sorbitol or hydrogen peroxide upon siRNA transfection: both stress stimuli, 10 min, FIG. 5B; for EGFR activation by oxidative stress: Src inhibitors, unpublished data
EGFR [3] = experiment: EGFR tyrosine phosphorylation (IP/immunoblot) in NCI-H292 lung carcinoma cells; format: cell-based, human; details: for stress-induced EGFR activation upon siRNA transfection: 0.3 M sorbitol or 200 μM hydrogen peroxide 10 min
ADAM9 = experiment: RNA interference, gene expression by RT-PCR in NCI-H292 cells; format: cell-based, human; details: 2 days after transfection, FIG. 5A
Description: (§1) FIG. 5. Effect of siRNAs against different ADAM proteins on stress-induced EGFR phosphorylation. (A) Blockade of ADAM metalloprotease expression by RNA interference (RNAi). NCI-H292 cells were transfected with siRNA against ADAM9, ADAM10 or ADAM15, cultured for 2 days and analyzed for gene expression by RT-PCR as indicated. (B) Cos-7 cells were transfected with siRNAs against ADAM9, -10, -12, -15 and -17, serum-starved for 24 hours, stimulated with 0.3 M sorbitol or 200 μM hydrogen peroxide for 10 min and assayed for EGFR tyrosine phosphorylation content. (C)NCI-H292 cells were treated as described under (B).
(§2) Transfection of 21-nucleotide siRNA duplexes (Dharmacon Research, Lafayette, Colo., USA) for targeting endogenous genes was carried out using Oligofectamine (Invitrogen) for NCI-H292 cells and 4.2 μg siRNA duplex per 6-well plate as previously described (Elbashir et al., 2001). Cos-7 cells were transfected using Lipofectamine 2000 (Invitrogen) according to the manufacturer's protocol. Briefly, 8.4 μg siRNA duplex per 6 cm dish were incubated with 10 μL Lipofectamine 2000 in 1 mL serum-free medium for 20 minutes. The transfection mixture was added to the cell culture medium containing serum and, after 6 h, cells were washed and incubated in medium containing serum overnight. NCI-H292 and Cos-7 cells were serum-starved and assayed 2 d after transfection. Highest efficiencies in silencing target genes were obtained by using mixtures of siRNA duplexes targeting different regions of the gene of interest. Sequences of siRNA used were
(§3) Specific silencing of targeted genes was confirmed by RT-PCR analysis. RNA isolated using RNeasy Mini Kit (Qiagen, Hilden, Germany) was reverse transcribed using AMV Reverse Transcriptase (Roche, Mannheim, Germany). PuReTaq Ready-To-Go PCR Beads (Amersham Biosciences, Piscataway, N.J.) were used for PCR amplification. Primers (Sigma Ark, Steinheim, Germany) were
(§4) PCR products were subjected to electrophoresis on a 2.5% agarose gel and DNA was visualized by ethidium bromide staining.

ADAM10 = experiment: as above; format: cell-based, human; details: 2 days after transfection, FIG. 5A
Description: as §1, §2, §3, §4

ADAM15 = experiment: as above; format: cell-based, human; details: 2 days after transfection, FIG. 5A
Description: as §1, §2, §3, §4

[4] = target: epidermal growth factor receptor (EGFR) (UniProt P00533); experiment: cell-based or functional assay
ERK1/2 [5] = experiment: ERK1/2 phosphorylation immunoblot in Cos-7 cells (pcDNA3-HA-ERK2); format: cell-based; details: AG1478 250 nM, BB94 10 μM, Crm197 10 μg/mL 20 min, stimulated 30 min, FIG. 6A
Description: (§5) FIG. 6. MAPK activation in response to stress agents and blockade of EGFR, metalloprotease and HB-EGF function. (A) Cos-7 cells transiently transfected with pcDNA3-HA-ERK2, TCC-Sup and NCI-H292 cells were pre-treated with AG1478 (250 nM), BB94 (10 μM), Crm197 (10 μg/mL) or an equal volume of empty vehicle (DMSO) for 20 min and stimulated with 0.3 M sorbitol or 200 μM hydrogen peroxide for 30 min. After cell lysis total lysates were immunoblotted with anti-phospho-ERK antibody, followed by reprobing of the same membranes with polyclonal anti-ERK antibody. Quantitative analysis of ERK phosphorylation from three independent experiments (mean[…]s.d.) using the FUJI LAS1000 imaging system. (B) Cos-7 and NCI-H292 cell were treated as described under (A). After lysis, JNK was immunoprecipitated using an anti-JNK antibody, and JNK activity was assayed using GST-c-JUN fusion protein as a substrate. Phosphorylated GST-c-JUN was visualized by autoradiography and JNK was immunoblotted in parallel using polyclonal JNK antibody. Quantitative analysis of GST-c-JUN phosphorylation from three independent experiments (mean[…]s.d.) using the FUJI LAS1000 imaging system. TCC-Sup cells were treated as described under (A). […]
(§6) Cells were lysed and proteins immunoprecipitated as described before (Daub et al., 1997). […] Phosphotyrosine was detected with the 4G10 monoclonal antibody (UBI, Lake Placid, N.Y.). […]

ERK1/2 [6] = experiment: ERK1/2 phosphorylation immunoblot in TCC-Sup cells; format: cell-based, human; details: AG1478 250 nM, BB94 10 μM, Crm197 10 μg/mL, FIG. 6A
Description: as §5, §6

p38 [7] = experiment: p38 phosphorylation immunoblot in Cos-7 cells; format: cell-based; details: AG1478 250 nM 20 min, 0.3 M sorbitol or 200 μM hydrogen peroxide, FIG. 2A
Description: FIG. 2. p38 mediates stress-induced EGFR phosphorylation. (A) Time-coure of p38 phosphorylation dependent on EGFR kinase function. Cos-7 cells were pretreated with AG1478 (250 nM) or an equal volume of empty vehicle (DMSO) for 20 min and stimulated with 0.3 M sorbitol or 200 μM hydrogen peroxide for the indicated periods. Cell extracts were immunoblotted with anti-phospho-p38 antibody and reprobing of the same filters with polyclonal anti-p38 antibody. (B) Stress-induced EGFR activation depends on p38 but not ERK activity in Cos-7 cells. Cos-7 cells were pre-treated with PD98059 (50 μM), SB202190 (10 μM) or an equal volume of empty vehicle (DMSO) for 30 min and stimulated with 0.3 M sorbitol and 200 μM hydrogen peroxide for 10 min and the GPCR agonist LPA (10 μM) or EGF (2 ng/mL) for 3 min as positive controls. Cell extracts were assayed for EGFR tyrosine phosphorylation content. (C) Stress-induced EGFR activation depends on p38 activity in TCC-Sup carcinoma cells. […]
FIG. 6. […] Quantitative analysis of ERK phosphorylation from three independent experiments (mean[…]s.d.) using the FUJI LAS1000 imaging system. […] Quantitative analysis of GST-c-JUN phosphorylation from three independent experiments (mean[…]s.d.) using the FUJI LAS1000 imaging system. […]

ERK1/2 [8] = experiment: ERK1/2 phosphorylation immunoblot in NCI-H292 cells; format: cell-based, human; details: AG1478 250 nM, BB94 10 μM, Crm197 10 μg/mL, FIG. 6A
Description: as §5, §6

In the case of COc1cccc2c1C(=O)c1c(O)c3c(c(O)c1C2=O)C[C@@](O)(C(=O)CO)C[C@@H]3O[C@H]1C[C@H](N)[C@H](O)[C@H](C)O1 [doxorubicin], the p38 activation (p38 [1]) is reported as “induces p38 activation”.

With Oc1ccc(-c2nc(-c3ccncc3)c(-c3ccc(F)cc3)[nH]2)cc1 [SB202190] the EGF-induced receptor phosphorylation (EGFR [2]; SB202190 10 μM 30 min, EGF 2 ng/mL 3 min, FIG. 2B) was “unaffected”, the LPA-induced receptor phosphorylation (EGFR [2]; SB202190 10 μM 30 min, LPA 10 μM 3 min, FIG. 2B) was “unaffected” and the “stress-induced EGFR activation” value (EGFR [2]; FIG. 2B) was “completely abrogated”.

In the case of COc1cccc(-c2cc(=O)c3ccccc3o2)c1N [PD98059], the “stress-induced EGFR activation” value (EGFR [2]; FIG. 2B) is reported as “did not affect”.

In the case of “siRNA against ADAM12: mixture of siRNA duplexes, SEQ ID NO 5 and 6, targeting ADAM12 (chain 1 AACCUCGCUGCAAAGAAUGUGTT; chain 2 AAGACCUUGATACGACUGCUGTT; chemistry not fully specified)”, the “EGFR activation upon siRNA transfection, hydrogen peroxide treatment only” value (EGFR [3]; 200 μM hydrogen peroxide, FIG. 5C) is reported as “participate in the stress response”.

In the case of “siRNA against ADAM9: mixture of 21-nucleotide siRNA duplexes, SEQ ID NO 1 and 2, targeting ADAM9 (chain 1 AAUCACUGUGGAGACAUUUGCTT; chain 2 AAACUUCCAGUGUGUAGAUGCTT; chemistry not fully specified)”, the “stress-induced EGFR activation upon siRNA transfection” value (EGFR [3]; FIG. 5C) is reported as “participate in the stress response” and the “knockdown of target gene expression (ADAM9)” value (ADAM9) is reported as “efficient and specific knockdown”.

In the case of “siRNA against ADAM10: mixture of 21-nucleotide siRNA duplexes, SEQ ID NO 3 and 4, targeting ADAM10 (chain 1 AAUGAAGAGGGACACUUCCCUTT; chain 2 AAGUUGCCUCCUCCUAAACCATT; chemistry not fully specified)”, the “EGFR activation after sorbitol or hydrogen peroxide upon siRNA transfection” value (EGFR [2]) is reported as “involved in EGFR activation” and the “knockdown of target gene expression (ADAM10)” value (ADAM10) is reported as “efficient and specific knockdown”.

For CNC(=O)[C@H](Cc1ccccc1)NC(=O)[C@H](CC(C)C)[C@H](CSc1cccs1)C(=O)NO [BB94, Batimastat], the “inhibition of stress-induced EGFR activation” value (EGFR [3]; BB94 10 μM 20 min, sorbitol 0.3 M or hydrogen peroxide 200 μM 10 min, printed 'inhibited ... to 50%') was 50%.

“siRNA against ADAM15: mixture of siRNA duplexes, SEQ ID NO 7 and 8, targeting ADAM15 (chain 1 AACUCCAUCUGUUCUCCUGACTT; chain 2 AAAUUGCCAGCUGCGCCCGUCTT; chemistry not fully specified)” was tested, and the “knockdown of target gene expression (ADAM15)” value (ADAM15) was “efficient and specific knockdown”.

With CC(C)(C)n1nc(-c2ccc(Cl)cc2)c2c(N)ncnc21 [PP2] the “EGFR activation by oxidative stress” value (EGFR [2]) was “did not achieve specific inhibition”.

“HB-EGF (from UniProt Q99075 20-208) (ligand)” was tested, and the JNK activity in response to oxidative stress (Cos-7 cells; kinase assay with GST-c-JUN) [4] was 50%.

With Cc1ccc(-c2nn(C(C)(C)C)c3ncnc(N)c23)cc1 [PP1] the “EGFR activation by oxidative stress” value (EGFR [2]) was “did not achieve specific inhibition”.

For COc1cc2ncnc(Nc3cccc(Cl)c3)c2cc1OC [AG1478], the “sorbitol and hydrogen peroxide-induced activation of ERK1/2” value (ERK1/2 [5]) was “blocked”, the “hyperosmolarity and oxidative stress-induced ERK1/2 activation” value (ERK1/2 [6]) was “substantially blocked” and the “p38 phosphorylation in response to stress agents” value (p38 [7]) was “did not affect”. The “hyperosmolarity and oxidative stress-induced ERK1/2 activation” value (ERK1/2 [8]) was “substantially blocked”.

B1: siRNA against ADAM17: mixture of siRNA duplexes, SEQ ID NO 9 to 11, targeting ADAM17 (nucleic acid)
chain 1: AAAGUUUGCUUGGCACACCUUTT
chain 2: AAGUAAGGCCCAGGAGUGUUTT
chain 3: AACAUAGAGCCACUUUGGAGATT
modifications: chemistry not fully specified
With B1 the “stress-induced EGFR activation upon siRNA transfection” value (EGFR [3]; FIG. 5C) was “involved in stress-induced EGFR activation” and the “EGFR activation after sorbitol or hydrogen peroxide upon siRNA transfection” value (EGFR [2]) was “involved in EGFR activation”.
